Test results reported in US7049313B2, “ATM inhibitors” (Kudos Pharmaceuticals Ltd., priority 2002, dated 2006).
Entries after “also recorded” stand apart in the source; their conditions may differ.

How the values were obtained:
LoVo cells = assay: Clonogenic survival assay, sensitisation to DNA double strand break chemotherapeutics; assay type: cell-based, human; details: 10 μM of compound
Protocol: (§1) Sensitisation of Cells to Ionising Radiation or DNA Double Strand Break Chemotherapies
(§2) The HeLa line was used for ionising radiation studies while LoVo was used for studies with chemotherapeutic agents. […] After 1 hour, a concentration range of either etoposide (FIG. 2), camptothecin (FIG. 3) or doxorubicin (FIG. 4) was added. […] For all treatments, after a further 16 hours incubation, drug containing media was removed and fresh media added prior to a further incubation of 10 days before the staining of colonies with Giemsa. All compounds were solubilised in DMSO, with a final concentration on cells of no more than 0.1%. Resulting colonies containing >50 cells were counted as positives.

HIV-1 [1] = assay: HIV-1 based LUCIA, all other cell lines tested; details: Human immunodeficiency virus 1
Excerpt: Retroviral Transductions (LUCIA).

HIV-1 HXB2 wild type = assay: HIV-1 4-day replication assay, wild type strain (p24 antigen ELISA); assay type: cell-based
Protocol: (§3) HIV-1 4-day Replication Assays
(§4) C8166 T-cells were washed and infected with HIV-1 (strains HXB2wt and HXB2AZTres, RT amino acid changes 67N, 70R, 215F, 219Q) at low multiplicity of infection for one hour at room temperature. The cells were then washed and distributed (5×10^4 cells/well) in triplicate into the wells of 96-well cell culture plates containing different concentrations of inhibitors. The plates were then incubated at 37° C. for 4 days. The cell-free culture fluid was then harvested and assayed for levels of p24 viral antigen using a commercially available ELISA kit (Murex), according to the manufacturers' instructions. Cytotoxicity was evaluated by distributing (5×10^4 cells/well) uninfected C8166 T-cells into triplicate wells of 96-well cell culture plates containing different concentrations of inhibitor and incubating the plates at 37° C. After 4 days, 25 μl of XTT, which is metabolised by viable but not dead cells was added and the plates incubated for a further 3 hours at 37° C. Finally, the absorbance was read at a wavelength of 450 nm.

HIV-1 [2] = assay: HIV-1 based luciferase assay (LUCIA) on Jurkat T-cells; assay type: cell-based; details: FIG. 5
HeLa cells = assay: Clonogenic survival assay, sensitisation to ionising radiation; assay type: cell-based, human
Protocol: as §1, §2

HIV-1 RT = target: T1, HIV-1 RT (Human immunodeficiency virus type 1 group M subtype B, UniProt P04585); assay: Chemilluminescent HIV-1 reverse transcriptase assay; assay type: biochemical; details: FIG. 6
T1 construct: chemilluminescent HIV-1 reverse transcriptase assays
Excerpt: Control RT inhibition using nevirapine (□) is also shown.

[3] = Cytotoxicity on uninfected C8166 T-cells (XTT dye reduction); assay type: cell-based; details: human, uninfected C8166 T-cells, read-out: 50% cytotoxic concentration (CC50)
Protocol: as §4

C8166 T-cells = assay: as above; assay type: cell-based; details: 4 days, XTT, FIG. 8C
Protocol: as §4

HIV-1 HXB2 AZT resistant = assay: microbe, parasite or virus in culture; assay type: cell-based
Protocol: as §3, §4

O=c1cc(-c2cccc3c2Sc2ccccc2S3)oc(N2CCOCC2)c1 [Compound 4, 2-Thianthren-1-yl-6-morpholin-4-yl-pyran-4-one]
sensitisation of cells to etoposide (% survival) (LoVo cells; FIG. 2): can sensitise cells to etopside
sensitisation of cells to camptothecin (% survival) (LoVo cells; FIG. 3): can sensitise cells to camptothecin
sensitisation of cells to doxorubicin (% survival) (LoVo cells; FIG. 4): can sensitise cells to doxorubicin
IC50 (HIV-1 [1]): 1 to 10 µM
inhibition of HIV-1 replication (HIV-1 HXB2 wild type; 4-day replication assays, FIG. 8): inhibits HIV-1 replication
IC50 (HIV-1 HXB2 wild type; Human immunodeficiency virus 1, HXB2, 96 h, C8166 T-cells, 4-day replication, p24): 0.1 µM
IC50 (HIV-1 [2]; Human immunodeficiency virus 1, Jurkat, read-out: IC50 in HIV-1 based LUCIA, Jurkat T-cells): ~1 µM
inhibition of retroviral vector transduction (LUCIA) (HIV-1 [2]; Jurkat T-cells): can inhibit recombinant retroviral vector infections; also recorded: efficiently inhibit HIV-1 LUCIA at low micromolar concentrations
sensitisation of cells to ionising radiation (% survival) (HeLa cells; HeLa cells, compound at 0.5 μM and 2 μM, FIG. 1): can sensitise cells to ionising radiation
sensitising tumour derived cell lines to DNA double strand break inducing agents (HeLa cells; summary of FIGS. 1–4 (HeLa and LoVo)): significant effect on sensitising tumour derived cell lines to DNA double strand break inducing agents
inhibition of HIV-1 RT (HIV-1 RT): does not inhibit HIV-1 RT
CC50 at 4 days [3]: > 20 µM
cytotoxicity (percentage of viable cells) (C8166 T-cells): No significant cytotoxicity; also recorded: no significant cytotoxic effects
inhibition of HIV-1 replication, wild-type versus AZT resistant strain (HIV-1 HXB2 AZT resistant; 4-day replication assays, FIG. 8A, 8B): inhibits HIV-1 replication equally well in both wild-type and AZT resistant HIV-1 strains; also recorded: inhibited HIV-1 replication equally well
IC50 (HIV-1 HXB2 AZT resistant; Human immunodeficiency virus 1, HXB2, C8166, 96 h, read-out: HIV-1 HXB2 (IC50 μM) AZT resistant): 0.06 µM
